From patent US9150530B2, “Esters of 4, 9-dihydroxy-naphtho [2, 3-b] furans for disease therapies” (Zhoushan Haizhongzhou Xinsheng Pharmaceuticals Co., Ltd., priority 2011, dated 2015)

System: A549
Assay: Cell viability determination (MTT), A549
Assay type: cell-based
Conditions: Homo sapiens, A549, lung cancer, 48 hour incubation, read-out: Drug concentrations for 50% cell viability (IC50)
Excerpt: (§1) Cell Culture: A549, DLD1, SW480, LOVO, HT-29, Hela, U-20S, MES-SA, SK-MEL-28, Panc-1, DU-145, CNE, U251, Eca-109, MGC80-3, QGY-7701, BEL-7404, PLC/PRF/5, Huh-7, and SGC-7901 cells were maintained in Dulbecco's Modified Eagle Medium (DMEM) (imported from Invitrogen, Carlsbad, Calif., USA) supplemented with 10% fetal bovine serum (FBS) (Si Ji Qing, Hangzhou, China) and 1% penicillin/streptomycin/amphotericin B (imported from Invitrogen, Carlsbad, Calif., USA).
(§2) Cell Viability Determination: Popular MTT method (Archives of Biochemistry and Biophysics, 1993, 303: 474-482) was used to screen the in vitro effects of the invented drugs. Briefly, 5000 to 10000 cells were inoculated per well in a 96-well plate. After overnight incubation, drug was added to the wells at final concentration of 10 μM, […], 2.5 μM, 1.25 μM, or 1 μM, 0.75 μM, 0.5 μM and 0.25 μM in complete culture medium. Each dose level covered 4 equivalent wells. After 48 hour incubation, one tenth volume of 5 mg/mL MTT (thiazolyl blue tetrazolium bromide, Sigma-Aldrich) stock solution was added, and incubation was continued for 2 hours. Then medium was removed and 100 μL of isopropanol solution comprising 86% isopropanol, 4% aqueous 1 N HCl and 10% aqueous SDS solution (10% in concentration) was added. The absorbance of each well at 570 nm wavelength was measured by a micro-plate reader after gentle shaking for 20 minutes. Drug concentrations of 50% cell viability (IC50) were calculated by LOGIT method.

| Structure (SMILES) | IC50 [nM] |
| --- | --- |
| CC(=O)c1cc2c(O)c3ccccc3c(OC(=O)CNC(=O)OC(C)(C)C)c2o1 [compound III, 2-acetyl-4-hydroxy-9-[(tert-butoxycarbonyl)amino]acetoxy-naphtho[2,3-b]furan] | 1250 to 2500 |

System: DLD1
Assay: Cell viability determination (MTT), DLD1
Assay type: cell-based
Conditions: Homo sapiens, DLD-1, DLD1, colorectal cancer, 48 hour incubation, read-out: Drug concentrations for 50% cell viability (IC50)
Excerpt: as §1, §2

| Structure (SMILES) | IC50 [nM] |
| --- | --- |
| CC(=O)c1cc2c(O)c3ccccc3c(OC(=O)CNC(=O)OC(C)(C)C)c2o1 [compound III, 2-acetyl-4-hydroxy-9-[(tert-butoxycarbonyl)amino]acetoxy-naphtho[2,3-b]furan] | 1030 |

System: SW480
Assay: Cell viability determination (MTT), SW480
Assay type: cell-based
Conditions: Homo sapiens, SW480, colorectal cancer, 48 hour incubation, read-out: Drug concentrations for 50% cell viability (IC50)
Excerpt: as §1, §2

| Structure (SMILES) | IC50 [nM] |
| --- | --- |
| CC(=O)c1cc2c(O)c3ccccc3c(OC(=O)CNC(=O)OC(C)(C)C)c2o1 [compound III, 2-acetyl-4-hydroxy-9-[(tert-butoxycarbonyl)amino]acetoxy-naphtho[2,3-b]furan] | 1550 |

System: LOVO
Assay: Cell viability determination (MTT), LOVO
Assay type: cell-based
Conditions: Homo sapiens, colorectal cancer, 48 hour incubation, read-out: Drug concentrations for 50% cell viability (IC50)
Excerpt: as §1, §2

| Structure (SMILES) | IC50 [µM] |
| --- | --- |
| CC(=O)c1cc2c(O)c3ccccc3c(OC(=O)CNC(=O)OC(C)(C)C)c2o1 [compound III, 2-acetyl-4-hydroxy-9-[(tert-butoxycarbonyl)amino]acetoxy-naphtho[2,3-b]furan] | 3.1 |

System: Hela
Assay: Cell viability determination (MTT), Hela
Assay type: cell-based
Conditions: Homo sapiens, cervical cancer, 48 hour incubation, read-out: Drug concentrations for 50% cell viability (IC50)
Excerpt: as §1, §2

| Structure (SMILES) | IC50 [nM] |
| --- | --- |
| CC(=O)c1cc2c(O)c3ccccc3c(OC(=O)CNC(=O)OC(C)(C)C)c2o1 [compound III, 2-acetyl-4-hydroxy-9-[(tert-butoxycarbonyl)amino]acetoxy-naphtho[2,3-b]furan] | 1250 to 2500 |

System: U-20S
Assay: Cell viability determination (MTT), U-20S
Assay type: cell-based
Conditions: osteosarcoma, 48 hour incubation, read-out: Drug concentrations for 50% cell viability (IC50)
Excerpt: as §1, §2

| Structure (SMILES) | IC50 [µM] |
| --- | --- |
| CC(=O)c1cc2c(O)c3ccccc3c(OC(=O)CNC(=O)OC(C)(C)C)c2o1 [compound III, 2-acetyl-4-hydroxy-9-[(tert-butoxycarbonyl)amino]acetoxy-naphtho[2,3-b]furan] | 2.5 to 5 |

System: MES-SA
Assay: Cell viability determination (MTT), MES-SA
Assay type: cell-based
Conditions: Homo sapiens, leiomyosarcoma, 48 hour incubation, read-out: Drug concentrations for 50% cell viability (IC50)
Excerpt: as §1, §2

| Structure (SMILES) | IC50 [nM] |
| --- | --- |
| CC(=O)c1cc2c(O)c3ccccc3c(OC(=O)CNC(=O)OC(C)(C)C)c2o1 [compound III, 2-acetyl-4-hydroxy-9-[(tert-butoxycarbonyl)amino]acetoxy-naphtho[2,3-b]furan] | 470 |

System: SK-MEL-28
Assay: Cell viability determination (MTT), SK-MEL-28
Assay type: cell-based
Conditions: Homo sapiens, SK-MEL-28, malignant melanoma, 48 hour incubation, read-out: Drug concentrations for 50% cell viability (IC50)
Excerpt: as §1, §2

| Structure (SMILES) | IC50 [nM] |
| --- | --- |
| CC(=O)c1cc2c(O)c3ccccc3c(OC(=O)CNC(=O)OC(C)(C)C)c2o1 [compound III, 2-acetyl-4-hydroxy-9-[(tert-butoxycarbonyl)amino]acetoxy-naphtho[2,3-b]furan] | 890 |

System: Panc-1
Assay: Cell viability determination (MTT), Panc-1
Assay type: cell-based
Conditions: Homo sapiens, Panc-1, pancreatic cancer, 48 hour incubation, read-out: Drug concentrations for 50% cell viability (IC50)
Excerpt: as §1, §2

| Structure (SMILES) | IC50 [nM] |
| --- | --- |
| CC(=O)c1cc2c(O)c3ccccc3c(OC(=O)CNC(=O)OC(C)(C)C)c2o1 [compound III, 2-acetyl-4-hydroxy-9-[(tert-butoxycarbonyl)amino]acetoxy-naphtho[2,3-b]furan] | 1770 |

System: DU-145
Assay: Cell viability determination (MTT), DU-145
Assay type: cell-based
Conditions: Homo sapiens, DU-145, prostate cancer, 48 hour incubation, read-out: Drug concentrations for 50% cell viability (IC50)
Excerpt: as §1, §2

| Structure (SMILES) | IC50 [nM] |
| --- | --- |
| CC(=O)c1cc2c(O)c3ccccc3c(OC(=O)CNC(=O)OC(C)(C)C)c2o1 [compound III, 2-acetyl-4-hydroxy-9-[(tert-butoxycarbonyl)amino]acetoxy-naphtho[2,3-b]furan] | 1250 to 2500 |

System: CNE
Assay: Cell viability determination (MTT), CNE
Assay type: cell-based
Conditions: Homo sapiens, nasopharyngeal cancer, 48 hour incubation, read-out: Drug concentrations for 50% cell viability (IC50)
Excerpt: as §1, §2

| Structure (SMILES) | IC50 [nM] |
| --- | --- |
| CC(=O)c1cc2c(O)c3ccccc3c(OC(=O)CNC(=O)OC(C)(C)C)c2o1 [compound III, 2-acetyl-4-hydroxy-9-[(tert-butoxycarbonyl)amino]acetoxy-naphtho[2,3-b]furan] | 1870 |

System: U251
Assay: Cell viability determination (MTT), U251
Assay type: cell-based
Conditions: Homo sapiens, U-251, U251, glioma, 48 hour incubation, read-out: Drug concentrations for 50% cell viability (IC50)
Excerpt: as §1, §2

| Structure (SMILES) | IC50 [nM] |
| --- | --- |
| CC(=O)c1cc2c(O)c3ccccc3c(OC(=O)CNC(=O)OC(C)(C)C)c2o1 [compound III, 2-acetyl-4-hydroxy-9-[(tert-butoxycarbonyl)amino]acetoxy-naphtho[2,3-b]furan] | 2070 |

System: Eca-109
Assay: Cell viability determination (MTT), Eca-109
Assay type: cell-based
Conditions: Homo sapiens, Eca-109, esophageal cancer, 48 hour incubation, read-out: Drug concentrations for 50% cell viability (IC50)
Excerpt: as §1, §2

| Structure (SMILES) | IC50 [nM] |
| --- | --- |
| CC(=O)c1cc2c(O)c3ccccc3c(OC(=O)CNC(=O)OC(C)(C)C)c2o1 [compound III, 2-acetyl-4-hydroxy-9-[(tert-butoxycarbonyl)amino]acetoxy-naphtho[2,3-b]furan] | 2550 |

System: MGC80-3
Assay: Cell viability determination (MTT), MGC80-3
Assay type: cell-based
Conditions: Homo sapiens, MGC-803, MGC80-3, stomach cancer, 48 hour incubation, read-out: Drug concentrations for 50% cell viability (IC50)
Excerpt: as §1, §2

| Structure (SMILES) | IC50 [nM] |
| --- | --- |
| CC(=O)c1cc2c(O)c3ccccc3c(OC(=O)CNC(=O)OC(C)(C)C)c2o1 [compound III, 2-acetyl-4-hydroxy-9-[(tert-butoxycarbonyl)amino]acetoxy-naphtho[2,3-b]furan] | 1650 |

System: QGY-7701
Assay: Cell viability determination (MTT), QGY-7701
Assay type: cell-based
Conditions: QGY7701, QGY-7701, liver cancer, 48 hour incubation, read-out: Drug concentrations for 50% cell viability (IC50)
Excerpt: as §1, §2

| Structure (SMILES) | IC50 [µM] |
| --- | --- |
| CC(=O)c1cc2c(O)c3ccccc3c(OC(=O)CNC(=O)OC(C)(C)C)c2o1 [compound III, 2-acetyl-4-hydroxy-9-[(tert-butoxycarbonyl)amino]acetoxy-naphtho[2,3-b]furan] | 4.8 |

System: not listed separately
Assay: Metabolism in biological fluid (human whole blood, cancer cell lysate, liver microsomes, mouse oral uptake), HPLC
Assay type: in vitro ADME
Conditions: liver microsomes or mouse oral uptake system, 20 μM, 37° C.
Procedure: Second, a major metabolite found after incubation of compound I, III, IV, VI or XIII in biological fluid, such as human whole blood, or cancer cell lysate, or liver microsomes, or mouse oral uptake system, is compound XII (FIG. 3). Similarly, a major metabolite found after incubation of compound V, VII or XIV in biological fluid is 2-(1-hydroxy-n-propyl)-naphtho[2,3-b]furan-4,9-dione (data not shown). Reduction of the position 2 substituent carbonyl group is part of quinone redox reaction as evidenced by the β-lapachone effect on the formation of compound XII in the compound XIII incubation mixture of human whole blood (part D of FIG. 3). The possible reaction mechanism is proposed as shown in scheme 7, in which the two electron reduction could be NQ01 catalyzed reduction or two successive cytochrome b5 reductase or p450 reductase catalyzed reaction. As substrate of these enzymes, β-lapachone could compete for the two electron or single electron reaction and thus reduced formation of the metabolism product.
Crystalline or amorphous solid of compound was mixed with excipient and suspended in 0.5% carboxymethylcellulose (CMC) solution in a mortar. Then the mixture was orally administered into ICR mouse at the predetermined dosage. At the predetermined time point, blood was drawn from the mouse and stored in the vial containing heparin. The blood samples were centrifuged at 6,000 rpm for 10 min, and plasmas were separated. To each plasma sample, 9 times volume of acetonitrile/methyl trifluoromethanesulfonate (1000:1) or acetonitrile/concentrated HCl (1000:1) was added. The resulting mixtures were vortexed and incubated in dry ice for 30 minutes or in −20° C. freezer for 3 hours, then centrifuged, and supernatants were separated for HPLC analysis using gradient B.
The biological systems for in vitro metabolism study include: human whole blood stabilized with sodium citrate; cancer cell lysate (obtained using freeze-thaw method, 10 mg/ml in protein concentration for use); liver microsomes with NADPH generation system (prepared according to the protocol provided by iPhase Pharma, Beijing, China);
10 mM of a compound of formula I or its analog or compound XIII in DMSO (however, compound VI was in DMF) was added into the biological system to a final concentration of 20 μM. The mixtures were incubated at 37° C. for predetermined time. To each sample, then 9 times volume of acetonitrile was added. The resulting mixtures were vortexed and incubated in dry ice for 30 minutes or in −20° C. freezer for 3 hours, then centrifuged, and supernatants were separated for HPLC analysis using gradient B.

| Structure (SMILES) | Major metabolite found after incubation in biological fluid |
| --- | --- |
| CC(=O)c1cc2c(O)c3ccccc3c(OC(=O)CNC(=O)OC(C)(C)C)c2o1 [compound III, 2-acetyl-4-hydroxy-9-[(tert-butoxycarbonyl)amino]acetoxy-naphtho[2,3-b]furan] | compound XII |
